SMILES strings stand for the structures. ≈ marks a conversion by molar mass, not a printed value. Read-outs that look alike come from different tables or passages of the source.

For data set [1] the following is noted: high-purity CBD, cited from earlier work.
The nature of data set [2]: Solubility determining in water by HPLC (saturated solutions, external standard method). The class given is physicochemical. Conditions: for solubility: thermodynamic from solid. An excerpt:
1. Solubility Determining:
1) Instruments and reagents: Thermo Fisher UltiMate 3000 high performance liquid chromatography (Thermo, USA); chromatographic column (Phenomenex Gemini C18, 5μ, 250×4.6 mm); electronic balance (METTLER TOLEDO instruments (Shanghai) Co., Ltd.); cannabidiol (commercially available), cannabidiol-3-sulfonic acid (prepared in Embodiment 1) and sodium cannabidiol-3-sulfonate (prepared in Embodiment 3). chromatography acetonitrile (Merck, Germany); water was Milli-Q ultrapure water, the remaining reagents were analytically pure.
Three clean 10 mL penicillin bottles were taken, 6 mL of ultrapure water was added accurately in each of the penicillin bottles, and the weight was weighed accurately. Cannabidiol, cannabidiol-3-sulfonic acid and sodium cannabidiol-3-sulfonate were separately added at room temperature until ultrasonic treatment was performed for 10 min and the samples still could not be completely dissolved, to obtain saturated solutions of three compounds respectively; the solutions stood overnight at room temperature, and supernatants were taken as solutions of samples for test (supernatants of the cannabidiol-3-sulfonic acid and the sodium cannabidiol-3-sulfonate were diluted by appropriate times depending on the detection situation).
An appropriate amount of cannabidiol, cannabidiol-3-sulfonic acid and sodium cannabidiol-3-sulfonate were taken and were prepared into solutions with a concentration of 0.2 mg·mL^−1 as reference substance solutions by using 10% acetonitrile-0.5% acetic acid solution.
The samples were determined by high performance liquid chromatography (Appendix V D of Part II of Chinese Pharmacopoeia).
Chromatographic conditions and system suitability Octadecylsilane bonded silica was used as a filler; 10% acetonitrile—0.5% acetic acid→75% acetonitrile—0.5% acetic acid were used as mobile phases; the wavelength was detected to be 225 nm; and the theoretical plate numbers were not less than 4,000 on a basis of cannabidiol, cannabidiol-3-sulfonic acid and sodium cannabidiol-3-sulfonate.
A measurement method includes: precisely measuring and injecting 20 μL of solution of sample for test into a liquid chromatograph, and recording a chromatogram; and taking a reference substance solution and measuring the reference substance solution according to the same method. The concentrations of the three compounds in the solution of sample for test were calculated by an external standard method according to a peak area.

Setting [3] is: in water, room temperature, saturated solution stood overnight, supernatant measured by HPLC, read-out: Solubility.

The solubility is how much of the substance goes into solution per volume. In the case of `C=C(C)[C@@H]1CCC(C)=C[C@H]1c1c(O)cc(CCCCC)cc1O` [Cannabidiol, 2-[(1R,6R)-3-methyl-6-(1-methylvinyl)-2-cyclohexen-1-yl]-5-pentyl-1,3-benzenediol], the “Solubility in organic solvents (in words)” value in data set [1] (ethanol, methanol, ether, benzene, chloroform, petroleum ether and other organic solvents) is recorded as “soluble”. For the same compound, in data set [1] (water or 10% sodium hydroxide solution), the “Solubility in water or 10% sodium hydroxide solution (in words)” value was “almost insoluble”. In addition, the “Solubility in water (in words)” value in data set [2] (in water at room temperature) is reported as “slightly soluble”. The solubility in data set [2] (setting [3]) amounted to 0.41 mg/mL (≈ 1.3 mM).
For `C=C(C)[C@@H]1CCC(C)=C[C@H]1c1c(O)cc(CCCCC)c(S(=O)(=O)O)c1O` [Cannabidiol-3-sulfonic acid, (1′R,2′R)-2,6-dihydroxy-5′-methyl-4-pentyl-2″-(propyl-1-en-2-yl)-1″,2′,3′,4′-tetrahydro-[1,1′-biphenyl]-3-sulfonic acid], in data set [2] (water), the concentration in solution (solubility) came to 56.2 mg/mL (≈ 142 mM).
As to `C=C(C)[C@@H]1CCC(C)=C[C@H]1c1c(O)cc(CCCCC)c(S(=O)(=O)[O-])c1O.[Na+]` [Sodium cannabidiol-3-sulfonate, sodium cannabidiol-3-sulfonate], in data set [2] (setting [3]), the solubility turned out to be 486 mg/mL.
